Experimental data reported in patent US20260022143A1, “Cyclic Peptide Inhibitors of IL-23” (JANSSEN PHARMACEUTICA NV, priority 2022, published 2026).
Starred links: 1 amine or outer side, 2 acyl side, 3 side chain; linkers in the order of their positions; H or OH if unused. Positions of bridges follow the written chain, without caps; N, C: chain ends. Non-standard residues stand in square brackets, D forms with d. Residues, ends and D or L forms follow the SMILES beside them. Groups on a side chain read outwards from the residue. *: point of attachment. Me3N+(CH2)2O(CH2)2O(CH2)2CO = C[N+](C)(C)CCOCCOCCC(=O)*; PEG12 = NCCOCCOCCOCCOCCOCCOCCOCCOCCOCCOCCOCCOCCC(=O)O; Trp(7-Me) = Cc1cccc2c(C[C@H](N)C(=O)O)c[nH]c12; Hexanoyl(6-NMe3+) = C[N+](C)(C)CCCCCC(=O)*; 2Nal = N[C@@H](Cc1ccc2ccccc2c1)C(=O)O; AEF = NCCOc1ccc(C[C@H](N)C(=O)O)cc1; X19 = C[N+](C)(C)C[C@@H](CC(=O)O)N*; dNMeY = CN[C@H](Cc1ccc(O)cc1)C(=O)O; 3Pal = N[C@@H](Cc1cccnc1)C(=O)O; Lys(Me) = CNCCCC[C@H](N)C(=O)O; Pen = CC(C)(S)[C@H](N)C(=O)O; Suc = O=C(CCC(=O)[*:2])[*:1]; αMeK = C[C@](N)(CCCCN)C(=O)O; X4 = COCCOCCCN(CCCOCCOC)CC*; dOrn = NCCC[C@@H](N)C(=O)O; Thp = NC1(C(=O)O)CCOCC1; Dap = NC[C@H](N)C(=O)O; X3 = C[N+](C)(C)CCCCC*; Sar = CNCC(=O)O

Experiment: Exposed Polar Surface Area (EPSA)
Type: physicochemical
Conditions: SFC on Chirex 3014 column; sample 1 mM DMSO stock; read-out: EPSA
Text: Exposed Polar Surface Area (EPSA) is an experimental descriptor of molecular polarity obtained from chromatographic retention in supercritical fluid chromatography (SFC).
The stationary phase (Chirex 3014(S)-valine and (R)-1-(alpha-naphthyl) ethylamine) was selected for its balance of lipophilic and polar attributes and its capacity to separate compounds with wide polarity differences. The mobile phase consists of methanol (+Ammonium formate) and CO2. Polar compounds are retained stronger under these conditions and a low-slope gradient of methanol achieves elution based on increasing polarity of the mobile phase. Results are normalized using calibration standards generating a linear relationship between retention times and EPSA values. The unit of EPSA is Å^2.
Along with the measurement of compounds of interest, a series of 8 calibration standards (see Materials) are analyzed generating a linear relationship between retention times and EPSA value. The 8 compounds used as calibration standard have their own EPSA value defined by G. Goetz based on the comparison with TPSA (see G. Goetz, L. Philippe and M. Shapiro, “EPSA: A novel supercritical fluid chromatography technique enabling the design of permeable cyclic peptides,” ACS Med. Chem. Lett., vol. 5, pp. 1167-1172, 2014 for more information). The slope from the linear relationship between EPSA values of these eight compounds and their retention times is used to determine the EPSA value of each compound of interest that's measured under the same condition using the equation as below: […]
The mixture of calibrations standard is reinjected every 20 compounds to validate the stability of the retention time.
The mobile phase modifier consists of ammonium formate LC_MS grade (>99%) (CAS number 540-69-2) diluted to 20 mM in HPLC grade Methanol (MeOH, CAS number 67-56-1) and liquid C02 SFC grade (CAS number 124-38-9).
Antipyrine (CAS number: 60-80-0) Chlorpromazine hydrochloride (CAS number: 69-09-0), desipramine hydrochloride (CAS number: […]), pindolol (CAS Number: 13523-86-9), diclofenac (CAS number: 15307-79-6)), m-nitro benzoic acid (CAS number: 121-92-6), bumetanide (CAS number: 28395-03-1), furosemide (CAS number: 54-31-9) were purchased from Sigma Aldrich (Steihneim, Germany).
All analyses were performed on a ultra performance convergence chromatography (UPC™) apparatus (Waters, Milford, MA, USA) equipped with a sample manager, a binary solvent delivery pump (BSM), a column manager, a convergence manager (automated back pressure regulator), a photo diode array detector (DAD) with a high pressure flow cell, and a mass detector simple quadrupole QDa. After the UV detector, the effluent of the SFC was mixed with an eluent consist of mixture MeOH/water (+0.3% Ammonia) 95/5 delivered by a make up pump with a flow rate of 0.4 mL/min and then split to the QDa using a splitter. The instrument was controlled, and data were processed with Masslynx 4.1.
The Analyses were performed using a 4.6×50 mm Chirex 3014(S)-valine and (R)-1-(alpha- naphthyl) ethylamine column (Phenomenex, Le Pecq, France) with 5 um particle and 100A pore size. The flow rate was 4 mL/min with the outlet pressure set to 14 MPa. The injection volume was 2 μL. the mobile phase composition was varied from 5% to 60% modifier at 20%/ min in a linear gradient, holding at 60% for 1.45 min and reverting to the original 5% until the end of the run. Data are acquired during 5 min. An equilibration time of 1 min is applied between 2 injections resulting in an injection every 6 min. each sample is analyzed in duplicate, resulting in a sample to sample turnaround time of 12 min.
The column temperature was set to 35° C. The mass detector was used in full scan from 100 to 800 for small molecules and from 500 to 1200 for peptides.
Each sample is delivered by compound logistics from DMSO stock solution without dilution. The concentration is 1 mM and the volume is 60 μL.

| Compound | EPSA |
| --- | --- |
| CC(=O)NCCCC[C@@H]1NC(=O)[C@H](Cc2c[nH]c3c(C)cccc23)NC(=O)[C@H]([C@@H](C)O)NC(=O)[C@H](CC(N)=O)NC(=O)[C@@H](NC(=O)CCOCCOCC[N+](C)(C)C)C(C)(C)SSC(C)(C)[C@@H](C(=O)N[C@@H](Cc2ccc(OCCCCC[N+](C)(C)C)cc2)C(=O)N[C@@H](Cc2ccc3ccccc3c2)C(=O)NC2(C(=O)N[C@@H](CCC(=O)O)C(=O)N[C@@H](CC(N)=O)C(=O)N[C@@H](Cc3cccnc3)C(=O)N(C)CC(N)=O)CCOCC2)NC1=O [compound 427, cPEG3aCO-Pen(3)-N-T-7MeW-K(Ac)-Pen(3)-TMAPF-2Nal-THP-E-N-3Pya-Sar-CONH2] ({Me3N+(CH2)2O(CH2)2O(CH2)2CO}-[Pen]NT[Trp(7-Me)]K(Ac)[Pen]Y(X3)[2Nal][Thp]EN[3Pal][Sar]-NH2; disulfide 1-6) | 168 A^2 |
| CC(=O)NCCCC[C@@H]1NC(=O)[C@H](Cc2c[nH]c3c(C)cccc23)NC(=O)[C@H]([C@@H](C)O)NC(=O)[C@H](CC(N)=O)NC(=O)[C@@H](NC(=O)[C@@H](CCCCNC(=O)CCC(=O)N[C@H](CC(=O)O)C[N+](C)(C)C)NC(C)=O)C(C)(C)SSC(C)(C)[C@@H](C(=O)N[C@@H](Cc2ccc(OCCN)cc2)C(=O)N[C@@H](Cc2ccc3ccccc3c2)C(=O)NC2(C(=O)N[C@@H](CCCCNC(C)=O)C(=O)N[C@@H](CC(N)=O)C(=O)N[C@@H](Cc3cccnc3)C(=O)N(C)CC(N)=O)CCOCC2)NC1=O [compound 107] (Ac-[dK]([Suc-X19])[Pen]NT[Trp(7-Me)]K(Ac)[Pen][AEF][2Nal][Thp]K(Ac)N[3Pal][Sar]-NH2; disulfide 2-7) | 173 A^2 |
| CC(=O)N[C@@H]1C(=O)N[C@@H](CC(=O)N(C)C)C(=O)N[C@@H]([C@@H](C)O)C(=O)N[C@@H](Cc2c[nH]c3c(C)cccc23)C(=O)N[C@@H](CCCCN(C)C(C)=O)C(=O)N[C@H](C(=O)N[C@@H](Cc2ccc(OCCCCC[N+](C)(C)C)cc2)C(=O)N[C@@H](Cc2ccc3ccccc3c2)C(=O)NC2(C(=O)N[C@@H](CCCCN(C)C(C)=O)C(=O)N[C@@H](CC(N)=O)C(=O)N[C@@H](Cc3cccnc3)C(=O)N(C)CC(=O)N(C)C)CCOCC2)C(C)(C)SSC1(C)C [compound 190, MeCO-Pen(3)-N(N(Me)2)-T-7MeW-K(NMeAc)-Pen(3)-TMAPF-2Nal-THP-K(NMeAc)-N-3Pya-Sar-CON(Me)2] (Ac-[Pen]D(NMe2)T[Trp(7-Me)][Lys(Me)](Ac)[Pen]Y(X3)[2Nal][Thp][Lys(Me)](Ac)N[3Pal][Sar]-NMe2; disulfide 1-6 (inferred)) | 137 A^2 |
| CC(=O)NCCCC[C@@H]1NC(=O)[C@H](Cc2c[nH]c3c(C)cccc23)NC(=O)[C@H]([C@@H](C)O)NC(=O)[C@H](CC(N)=O)NC(=O)[C@@H](NC(C)=O)C(C)(C)SSC(C)(C)[C@@H](C(=O)N[C@@H](Cc2ccc(OCCN)cc2)C(=O)N[C@@H](Cc2ccc3ccccc3c2)C(=O)N[C@@](C)(CCCCN)C(=O)N[C@@H](CCCCNC(C)=O)C(=O)N[C@@H](CC(N)=O)C(=O)N[C@@H](C(=O)N(C)[C@H](Cc2ccc(O)cc2)C(N)=O)C(C)C)NC1=O [compound 14, MeCO-Pen(3)-N-T-7MeW-K(Ac)-Pen(3)-AEF-2Nal-aMeK-K(Ac)-N-v-NMeDTyr-CONH2] (Ac-[Pen]NT[Trp(7-Me)]K(Ac)[Pen][AEF][2Nal][αMeK]K(Ac)N[dV][dNMeY]-NH2; disulfide 1-6) | 166 A^2 |
| CC(=O)NCCCC[C@@H]1NC(=O)[C@H](Cc2c[nH]c3c(C)cccc23)NC(=O)[C@H]([C@@H](C)O)NC(=O)[C@H](CC(N)=O)NC(=O)[C@@H](NC(=O)CCCCC[N+](C)(C)C)C(C)(C)SSC(C)(C)[C@@H](C(=O)N[C@@H](Cc2ccc(OCCN)cc2)C(=O)N[C@@H](Cc2ccc3ccccc3c2)C(=O)NC2(C(=O)N[C@@H](CCCCNC(C)=O)C(=O)N[C@@H](CC(N)=O)C(=O)N[C@@H](Cc3cccnc3)C(=O)N(C)CC(N)=O)CCOCC2)NC1=O [compound 89] ({Hexanoyl(6-NMe3+)}-[Pen]NT[Trp(7-Me)]K(Ac)[Pen][AEF][2Nal][Thp]K(Ac)N[3Pal][Sar]-NH2; disulfide 1-6 (inferred)) | 160 A^2 |
| CC(=O)NCCCC[C@@H]1NC(=O)[C@H](Cc2c[nH]c3c(C)cccc23)NC(=O)[C@H]([C@@H](C)O)NC(=O)[C@H](CC(N)=O)NC(=O)[C@@H](NC(=O)CCOCCOCC[N+](C)(C)C)C(C)(C)SSC(C)(C)[C@@H](C(=O)N[C@@H](Cc2ccc(OCCCCC[N+](C)(C)C)cc2)C(=O)N[C@@H](Cc2ccc3ccccc3c2)C(=O)NC2(C(=O)N[C@@H](C)C(=O)N[C@@H](CC(N)=O)C(=O)N[C@@H](Cc3cccnc3)C(=O)N(C)CC(=O)N(C)C)CCOCC2)NC1=O [compound 317, cPEG3aCO-Pen(3)-N-T-7MeW-K(Ac)-Pen(3)-TMAPF-2Nal-THP-A-N-3Pya-Sar-CON(Me)2] ({Me3N+(CH2)2O(CH2)2O(CH2)2CO}-[Pen]NT[Trp(7-Me)]K(Ac)[Pen]Y(X3)[2Nal][Thp]AN[3Pal][Sar]-NMe2; disulfide 1-6) | 158 A^2 |
| CC(=O)NCCCC[C@@H]1NC(=O)[C@H](Cc2c[nH]c3c(C)cccc23)NC(=O)[C@H]([C@@H](C)O)NC(=O)[C@H](CC(N)=O)NC(=O)[C@@H](NC(=O)[C@@H](CCCNC(=N)N)NC(=O)CCOCCOCCOCCOCCOCCOCCOCCOCCOCCOCCOCCOCCNC(C)=O)C(C)(C)SSC(C)(C)[C@@H](C(=O)N[C@@H](Cc2ccc(OCCN)cc2)C(=O)N[C@@H](Cc2ccc3ccccc3c2)C(=O)NC2(C(=O)N[C@@H](CCC(=O)O)C(=O)N[C@@H](CC(N)=O)C(=O)N[C@@H](Cc3cccnc3)C(=O)N(C)CC(N)=O)CCOCC2)NC1=O [compound 38] (Ac-[PEG12][dR][Pen]NT[Trp(7-Me)]K(Ac)[Pen][AEF][2Nal][Thp]EN[3Pal][Sar]-NH2; disulfide 3-8) | 172 A^2 |
| COCCOCCCN(CCCOCCOC)CCOc1ccc(C[C@H](NC(=O)[C@H]2NC(=O)[C@H](CCCCNC(C)=O)NC(=O)[C@H](Cc3c[nH]c4c(C)cccc34)NC(=O)[C@H]([C@@H](C)O)NC(=O)[C@H](CC(N)=O)NC(=O)[C@@H](NC(=O)CCCCC[N+](C)(C)C)C(C)(C)SSC2(C)C)C(=O)N[C@@H](Cc2ccc3ccccc3c2)C(=O)NC2(C(=O)N[C@@H](CNC(C)=O)C(=O)N[C@@H](CC(N)=O)C(=O)N[C@@H](Cc3cccnc3)C(=O)N(C)CC(N)=O)CCOCC2)cc1 [compound 205] ({Hexanoyl(6-NMe3+)}-[Pen]NT[Trp(7-Me)]K(Ac)[Pen]Y(X4)[2Nal][Thp][Dap](Ac)N[3Pal][Sar]-NH2; disulfide 1-6) | 149 A^2 |
| CC(=O)NCCCC[C@@H]1NC(=O)[C@H](Cc2c[nH]c3c(C)cccc23)NC(=O)[C@H]([C@@H](C)O)NC(=O)[C@H](CC(N)=O)NC(=O)[C@@H](NC(C)=O)C(C)(C)SSC(C)(C)[C@@H](C(=O)N[C@@H](Cc2ccc(OCCN)cc2)C(=O)N[C@@H](Cc2ccc3ccccc3c2)C(=O)N[C@@](C)(CCCCN)C(=O)N[C@@H](CCCCNC(C)=O)C(=O)N[C@@H](CC(N)=O)C(=O)N[C@H](CCCN)C(=O)N(C)[C@H](Cc2ccc(O)cc2)C(N)=O)NC1=O [compound 18, MeCO-Pen(3)-N-T-7MeW-K(Ac)-Pen(3)-AEF-2Nal-aMeK-K(Ac)-N-orn-NMeDTyr-CONH2] (Ac-[Pen]NT[Trp(7-Me)]K(Ac)[Pen][AEF][2Nal][αMeK]K(Ac)N[dOrn][dNMeY]-NH2; disulfide 1-6) | 219 A^2 |
| CC(=O)NCCCC[C@@H]1NC(=O)[C@H](Cc2c[nH]c3c(C)cccc23)NC(=O)[C@H]([C@@H](C)O)NC(=O)[C@H](CC(N)=O)NC(=O)[C@@H](NC(C)=O)C(C)(C)SSC(C)(C)[C@@H](C(=O)N[C@@H](Cc2ccc(OCC3CCC([N+](C)(C)C)CC3)cc2)C(=O)N[C@@H](Cc2ccc3ccccc3c2)C(=O)NC2(C(=O)N[C@@H](CCCCNC(C)=O)C(=O)N[C@@H](CC(N)=O)C(=O)N[C@@H](Cc3cccnc3)C(=O)N(C)CC(N)=O)CCOCC2)NC1=O (single isomer, unassigned) [compound 530, MeCO-Pen(3)-N-T-7MeW-K(Ac)-Pen(3)-ACHMF(S*, S*)-2Nal-THP-K(Ac)-N-3Pya-Sar-CONH2] | 166 A^2 |
